{"source": "paper PMC10808970", "about": "“Chloroplasts lacking class I glutaredoxins are functional but show a delayed recovery of protein cysteinyl redox state after oxidative challenge” (Redox Biology, 2023)", "target": "T1, PpGRXC5 (Physcomitrium patens, UniProt A0A2K1KTP0)", "T1 construct": "gene LOC112280307; targeting peptide removed, starts at Ala120 to native stop; Gateway vector pETG-10A, E. coli Rosetta2; tag not described; active site YCPYC", "T1 sequence (A0A2K1KTP0 120-228)": "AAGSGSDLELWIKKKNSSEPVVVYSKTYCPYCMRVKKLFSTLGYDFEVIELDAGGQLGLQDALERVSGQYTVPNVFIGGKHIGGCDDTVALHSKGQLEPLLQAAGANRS", "assay": "HED assay, GR-coupled NADPH oxidation at […] nm", "format": "biochemical", "conditions": "0.3-1.5 mM HED varied, 1 mM GSH constant, 200 uM NADPH, yeast GR, 30 nM enzyme, 100 mM Tris-HCl, 1 mM EDTA, pH 7.9; actual substrate is the glutathione-mercaptoethanol mixed disulfide; read-out: Km^app"}
{"smiles": "OCCSSCCO", "note": "[HED, bis(2-hydroxyethyl)disulfide]", "values": [{"measurement": "Km", "result": "390 ± 110", "unit": "µM"}]}
